Structures are written as SMILES.

By IC50 is commonly meant the point on the concentration scale where inhibition reaches its midpoint.

T1 sequence (Q9UM73 1058-1620): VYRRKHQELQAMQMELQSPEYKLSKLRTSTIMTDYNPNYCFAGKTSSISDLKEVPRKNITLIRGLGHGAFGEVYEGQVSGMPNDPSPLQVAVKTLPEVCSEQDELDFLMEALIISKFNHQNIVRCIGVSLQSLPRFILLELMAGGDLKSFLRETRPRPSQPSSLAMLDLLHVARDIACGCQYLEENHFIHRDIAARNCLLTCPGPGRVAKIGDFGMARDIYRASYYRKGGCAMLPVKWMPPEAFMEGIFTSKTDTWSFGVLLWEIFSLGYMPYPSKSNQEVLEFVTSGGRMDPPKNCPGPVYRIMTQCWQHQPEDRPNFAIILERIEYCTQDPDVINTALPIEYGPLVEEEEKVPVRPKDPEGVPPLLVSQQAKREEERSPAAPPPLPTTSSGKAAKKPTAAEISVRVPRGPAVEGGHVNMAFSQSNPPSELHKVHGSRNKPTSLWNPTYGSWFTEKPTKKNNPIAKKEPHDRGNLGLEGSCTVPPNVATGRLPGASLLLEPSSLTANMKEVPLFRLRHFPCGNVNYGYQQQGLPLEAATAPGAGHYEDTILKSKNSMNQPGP

The first experiment addresses T1, wild-type human ALK (cytoplasmic domain, amino acids 1058-1620, N-terminal GST fusion) (Homo sapiens, UniProt Q9UM73).
T1 construct: The cytoplasmic domain (amino acids 1058-1620) of wild-type human ALK; GST (N); made in house; host or cells: SF9 insect cells
Put plainly: ALK Inhibition in Enzyme Assay (Lance TR-FRET kinase assay).
Settings: not given
Format: biochemical. The gist of the method: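 Purified enzyme phosphorylated a biotinylated peptide substrate for 90 minutes at room temperature. Reactions were stopped with 20 mM EDTA in 50 mM Tris (pH 7.5), 100 mM NaCl, 0.05% BSA, 0.1% Tween-20. Phosphopeptide was detected by TR-FRET with SA-APC and Eu-W1024 anti-phosphotyrosine antibody PT66, excitation 320 nm.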
In general terms: Time-resolved FRET reads energy transfer from a long-lived donor to a nearby acceptor.
As for `COC(=O)[C@H]1CC[C@@H](n2c(NC(=O)c3ccc(F)cc3)nc3ccc(CN4CCCCC4)cc32)CC1` [Example 3, cis-Methyl 4-(2-(4-fluorobenzoylimino)-6-(piperidin-1-ylmethyl)-2,3-dihydro-1H-benzo[d]imidazol-1-yl)cyclohexanecarboxylate], the IC50 was less than 50 nM.
`CC(C)NC(=O)[C@H]1CC[C@@H](n2/c(=N/C(=O)NC3CCCCC3)[nH]c3cnc(OCCN4CCCCC4)cc32)CC1` [Example 132, cis-4-((E)-2-(Cyclohexylcarbamoylimino)-6-(2-(piperidin-1-yl)ethoxy)-2,3-dihydro-1H-imidazo[4,5-c]pyridin-1-yl)-N-isopropylcyclohexanecarboxamide] yielded an IC50 of 100 to 1000 nM.
Same read-out and setting: the same measure for `CC(C)(O)C1CCN(Cc2ccc3[nH]/c(=N\C(=O)c4cccc(F)c4)n([C@H]4CC[C@H](C(N)=O)CC4)c3c2)CC1` [Example 234, (E)-N-(1-(trans-4-Carbamoylcyclohexyl)-6-((4-(2-hydroxypropan-2-yl)piperidin-1-yl)methyl)-1H-benzo[d]imidazol-2(3H)-ylidene)-3-fluorobenzamide]: 100 to 1000 nM; for `CC(C)NC(=O)[C@H]1CC[C@@H](n2/c(=N/C(=O)c3ccc(F)cc3)[nH]c3ccc(F)cc32)CC1` [Example 220, (E)-4-Fluoro-N-(6-fluoro-1-(cis-4-(isopropylcarbamoyl)cyclohexyl)-1H-benzo[d]imidazol-2(3H)-ylidene)benzamide]: less than 50 nM.
As for `CC(C)NC(=O)[C@H]1CC[C@@H](n2/c(=N/C(=O)c3ccc(C#N)cc3)[nH]c3cnc(OCCN4CCCCC4)cc32)CC1` [Example 89, (E)-4-Cyano-N-(1-(cis-4-(isopropylcarbamoyl)cyclohexyl)-6-(2-(piperidin-1-yl)ethoxy)-1H-imidazo[4,5-c]pyridin-2(3H)-ylidene)benzamide], the IC50 is less than 50 nM.
Same read-out and setting: next, `COc1cc(F)cc(C(=O)/N=c2\[nH]c3cnc(OCCN4CCCCC4)cc3n2[C@H]2CC[C@@H](C(=O)NC(C)C)CC2)c1` [Example 117, (E)-3-Fluoro-N-(1-(cis-4-(isopropylcarbamoyl)cyclohexyl)-6-(2-(piperidin-1-yl)ethoxy)-1H-imidazo[4,5-c]pyridin-2(3H)-ylidene)-5-methoxybenzamide]: 50 to 100 nM.
On the same count and under the same terms, the same measure for `CC(C)NC(=O)[C@H]1CC[C@@H](n2/c(=N/C(=O)c3ccc(F)cc3)[nH]c3cnc(N4CCN(S(C)(=O)=O)CC4)cc32)CC1` [Example 224, (E)-4-Fluoro-N-(1-(cis-4-(isopropylcarbamoyl)cyclohexyl)-6-(4-(methylsulfonyl)-piperazin-1-yl)-1H-imidazo[4,5-c]pyridin-2(3H)-ylidene)benzamide]: less than 50 nM; for `COC(=O)[C@H]1CC[C@@H](n2/c(=N/C(=O)c3ccc(F)cc3)[nH]c3cnc(OCCN4CCCCC4)cc32)CC1` [Example 44, cis-Methyl 4-((E)-2-(4-fluorobenzoylimino)-6-(2-(piperidin-1-yl)ethoxy)-2,3-dihydro-1H-imidazo[4,5-c]pyridin-1-yl)cyclohexanecarboxylate]: less than 50 nM; for `CC(C)NC(=O)[C@H]1CC[C@@H](n2/c(=N/C(=O)c3ccc(F)cc3)[nH]c3ccc(CN4CCC(F)(F)CC4)cc32)CC1` [Example 191, (E)-N-(6-((4,4-Difluoropiperidin-1-yl)methyl)-1-(cis-4-(isopropylcarbamoyl)cyclohexyl)-1H-benzo[d]imidazol-2(3H)-ylidene)-4-fluorobenzamide]: less than 50 nM.
Same read-out and setting: the same measure for `CC(C)NC(=O)[C@H]1CC[C@@H](n2/c(=N/C(=O)c3ccnc(F)c3)[nH]c3cnc(OCCN4CCCCC4)cc32)CC1` [Example 106, (E)-2-Fluoro-N-(1-(cis-4-(isopropylcarbamoyl)cyclohexyl)-6-(2-(piperidin-1-yl)ethoxy)-1H-imidazo[4,5-c]pyridin-2(3H)-ylidene)isonicotinamide]: less than 50 nM; for `O=C(/N=c1\[nH]c2ccc(CN3CCOCC3)cc2n1[C@H]1CC[C@@H](C(=O)NCCO)CC1)c1ccc(F)cc1` [Example 201, (E)-4-Fluoro-N-(1-(cis-4-(2-hydroxyethylcarbamoyl)cyclohexyl)-6-(morpholinomethyl)-1H-benzo[d]imidazol-2(3H)-ylidene)benzamide]: less than 50 nM; for `CC(C)NC(=O)[C@H]1CC[C@@H](n2/c(=N/C(=O)c3ccc(F)c(F)c3)[nH]c3cnc(OCCN4CCCCC4)cc32)CC1` [Example 107, (E)-3,4-Difluoro-N-(1-(cis-4-(isopropylcarbamoyl)cyclohexyl)-6-(2-(piperidin-1-yl)ethoxy)-1H-imidazo[4,5-c]pyridin-2(3H)-ylidene)benzamide]: less than 50 nM.
As to `CC(C)NC(=O)[C@H]1CC[C@@H](n2/c(=N/C(=O)c3ccc4cc[nH]c4c3)[nH]c3cnc(OCCN4CCCCC4)cc32)CC1` [Example 104, (E)-N-(1-(cis-4-(Isopropylcarbamoyl)cyclohexyl)-6-(2-(piperidin-1-yl)ethoxy)-1H-imidazo[4,5-c]pyridin-2(3H)-ylidene)-1H-indole-6-carboxamide], the IC50 lay in the range of 100 to 1000 nM.
Still for that read-out and setting: next, `O=C(/N=c1\[nH]c2ccc(CN3CCCCC3)cc2n1[C@H]1CC[C@@H](C(=O)NCC(F)(F)F)CC1)c1ccc(F)cc1` [Example 39, (E)-4-Fluoro-N-(6-(piperidin-1-ylmethyl)-1-(cis-4-(2,2,2-trifluoroethylcarbamoyl)cyclohexyl)-1H-benzo[d]imidazol-2(3H)-ylidene)benzamide]: less than 50 nM.
`COC(=O)[C@H]1CC[C@@H](n2c(NC(=O)c3cccc(C(F)(F)F)c3)nc3ccc(CN4CCCCC4)cc32)CC1` [Example 14, cis-Methyl 4-(6-(piperidin-1-ylmethyl)-2-(3-(trifluoromethyl)benzamido)-1H-benzo[d]imidazol-1-yl)cyclohexanecarboxylate] came in with an IC50 of less than 50 nM.
The compound `CC(C)(O)C1CCN(Cc2ccc3[nH]/c(=N\C(=O)c4ccc(F)cc4)n([C@H]4CC[C@@H](C(=O)N5CCNCC5)CC4)c3c2)CC1` [Example 211, (E)-4-Fluoro-N-(6-((4-(2-hydroxypropan-2-yl)piperidin-1-yl)methyl)-1-(cis-4-(piperazine-1-carbonyl)cyclohexyl)-1H-benzo[d]imidazol-2(3H)-ylidene)benzamide] had a concentration for half-maximal inhibition (IC50) of less than 50 nM.
The same measure, in the same setting: next, `O=C(/N=c1\[nH]c2ccc(CN3CCCCC3)cc2n1[C@H]1CC[C@@H](C(=O)NC2CC2)CC1)c1ccc(F)cc1` [Example 31, (E)-N-(1-(cis-4-(Cyclopropylcarbamoyl)cyclohexyl)-6-(piperidin-1-ylmethyl)-1H-benzo[d]imidazol-2(3H)-ylidene)-4-fluorobenzamide]: less than 50 nM.
The same measure, in the same setting: next, `CC(C)(O)C1CCN(CCOc2cc3c(cn2)[nH]/c(=N\C(=O)c2cccc(F)c2)n3[C@H]2CC[C@@H](C(=O)N3CC(F)(F)C3)CC2)CC1` [Example 80, (E)-N-(1-(cis-4-(3,3-Difluoroazetidine-1-carbonyl)cyclohexyl)-6-(2-(4-(2-hydroxypropan-2-yl)piperidin-1-yl)ethoxy)-1H-imidazo[4,5-c]pyridin-2(3H)-ylidene)-3-fluorobenzamide]: less than 50 nM.
Still for that read-out and setting: next, `O=C(/N=c1\[nH]c2ccc(CN3CCOCC3)cc2n1[C@H]1CC[C@@H](C(=O)NO)CC1)c1ccc(F)cc1` [Example 207, (E)-4-Fluoro-N-(1-(cis-4-(hydroxycarbamoyl)cyclohexyl)-6-(morpholinomethyl)-1H-benzo[d]imidazol-2(3H)-ylidene)benzamide]: 50 to 100 nM; `CC(C)(CO)NC(=O)[C@H]1CC[C@@H](n2/c(=N/C(=O)c3ccc(F)cc3)[nH]c3ccc(CN4CCOCC4)cc32)CC1` [Example 199, (E)-4-Fluoro-N-(1-(cis-4-(1-hydroxy-2-methylpropan-2-ylcarbamoyl)cyclohexyl)-6-(morpholinomethyl)-1H-benzo[d]imidazol-2(3H)-ylidene)benzamide]: less than 50 nM.
For the compound `O=C(Nc1nc2ccc(CO)cc2n1C12CC3CC(CC(C3)C1)C2)c1ccccc1` [Example 13, N-(1-adamantyl-6-(hydroxymethyl)-1H-benzo[d]imidazol-2-yl)benzamide], the half-inhibitory concentration (IC50) lay in the range of 100 to 1000 nM.
On the same count and under the same terms, the same measure for `CC(C)NC(=O)[C@H]1CC[C@@H](n2/c(=N/C(=O)c3ccc(F)cc3)[nH]c3cnccc32)CC1` [Example 156, (E)-4-Fluoro-N-(1-(cis-4-(isopropylcarbamoyl)cyclohexyl)-1H-imidazo[4,5-c]pyridin-2(3H)-ylidene)benzamide]: less than 50 nM.
`CONC(=O)[C@H]1CC[C@@H](n2/c(=N/C(=O)c3ccc(F)cc3)[nH]c3ccc(CN4CCOCC4)cc32)CC1` [Example 208, (E)-4-Fluoro-N-(1-(cis-4-(methoxycarbamoyl)cyclohexyl)-6-(morpholinomethyl)-1H-benzo[d]imidazol-2(3H)-ylidene)benzamide] came in with an IC50 of less than 50 nM.
The same measure, in the same setting: next, `Cc1n[nH]c([C@H]2CC[C@@H](n3/c(=N/C(=O)c4cccc(F)c4)[nH]c4ccc(CO)cc43)CC2)n1` [Example 73, (E)-3-Fluoro-N-(6-(hydroxymethyl)-1-(cis-4-(3-methyl-1H-1,2,4-triazol-5-yl)cyclohexyl)-1H-benzo[d]imidazol-2(3H)-ylidene)benzamide]: 100 to 1000 nM.
In turn, `O=C(/N=c1\[nH]c2ccc(CN3CCCCC3)cc2n1[C@H]1CC[C@@H](C(=O)N2CCNCC2)CC1)c1ccc(F)cc1` [Example 47, (E)-4-Fluoro-N-(1-(cis-4-(piperazine-1-carbonyl)cyclohexyl)-6-(piperidin-1-ylmethyl)-1H-benzo[d]imidazol-2(3H)-ylidene)benzamide] had a half-inhibitory concentration (IC50) of less than 50 nM.

Staying with this experiment, now noted: 2 nM enzyme, ATP 40 μM (Km apparent), 90 minutes at room temperature; mean of three replicates.
For `C=CCNS(=O)(=O)c1cccc(C(=O)/N=c2\[nH]c3cnc(OCCN4CCCCC4)cc3n2C2CCC(C(=O)NC)CC2)c1` [Example 245, (E)-3-(N-Allylsulfamoyl)-N-(1-((1R,4R)-4-(methylcarbamoyl)cyclohexyl)-6-(2-(piperidin-1-yl)ethoxy)-1H-imidazo[4,5-c]pyridin-2(3H)-ylidene)benzamide], the IC50 was 50 to 100 nM.

Source of the values: patent publication US9115127B2 (AMGEN INC., priority 2010, dated 2015).
